Assay results from patent US9278958B2, “Anti-cancer compounds” (KATHOLIEKE UNIVERSITEIT LEUVEN, priority 2012, dated 2016).
Read-outs that look alike come from different tables or passages of the source.

Key:
CEM cells = assay: Cytostatic assay, CEM; assay type: cell-based; details: Homo sapiens, CCRF-CEM
Summary of the method: (§1)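 Each cell line grows in the presence of compound for 48 h to 96 h, the duration chosen per line, at 37° C in a humid CO2-regulated incubator. Seeding is 5-7.5×10^4 cells per well, and final counts come from a Coulter counter.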

Molt4/C8 cells = assay: Cytostatic assay, Molt4/C8; assay type: cell-based; details: Table 2
Procedure: (§2) To each well of a 96-well microtiter plate were added 5-7.5×10^4 cells and a given amount of the test compound. The cells were allowed to proliferate for 48 h to 96 h (depending on the nature of the cell line) at 37° C. in a humidified CO2-controlled atmosphere. At the end of the incubation period, the cells were counted in a Coulter Counter (Coulter Electronics Ltd, Harpenden Herts, United Kingdom).

Sup T1 cells = assay: Cytostatic assay, Sup T1; assay type: cell-based; details: Homo sapiens, Table 2, read-out: Cytostatic activity (μM) Sup T 1
Procedure: as §2

MT-2 cells = assay: Cytostatic assay, MT-2; assay type: cell-based; details: Homo sapiens, MT2; Table 2
Procedure: as §2

C8166 cells = assay: Cytostatic assay, C8166; assay type: cell-based; details: Homo sapiens, Table 2
Procedure: as §2

HUT-78 cells = assay: Cytostatic assay, HUT-78; assay type: cell-based; details: Homo sapiens, HuT78; Table 2
Procedure: as §2

MT-4 cells = assay: Cytostatic assay, MT-4; assay type: cell-based; details: Homo sapiens, MT4; Table 2
Procedure: as §2

[1] = test system: HL60, human leukemia cells; assay: Cytostatic assay, HL-60; assay type: cell-based; details: Table 2
Procedure: as §2

[2] = test system: U937, human monocytic cells; assay: Cytostatic assay, U937; assay type: cell-based; details: U-937, Table 2
Procedure: as §2

[3] = test system: THP-1, human monocytic cells; assay: Cytostatic assay, THP-1; assay type: cell-based; details: Table 2
Procedure: as §2

[4] = test system: Raji, human B-lymphoma cells; assay: Cytostatic assay, Raji; assay type: cell-based; details: Table 2
Procedure: as §2

L1210 cells = assay: Cytostatic assay, L1210; assay type: cell-based; details: Mus musculus, Table 2
Procedure: as §2

[5] = test system: OST TK- osteosarcoma cells; assay: Cytostatic assay, OST TK-; assay type: cell-based; details: Homo sapiens; Table 3
Procedure: as §2

[6] = test system: MCF-7 mammary carcinoma cells; assay: Cytostatic assay, MCF-7; assay type: cell-based; details: Homo sapiens, MCF7; Table 3
Procedure: as §2

[7] = test system: FM3A mammary carcinoma cells; assay: Cytostatic assay, FM3A; assay type: cell-based, murine; details: Mus musculus, Table 3
Procedure: as §2

[8] = test system: HeLa cervix carcinoma cells; assay: Cytostatic assay, HeLa; assay type: cell-based, human; details: Homo sapiens; Table 3; read-out: Cytostatic activity (μM) Hela
Summary of the method: as §1

[9] = test system: Caki-1 kidney carcinoma cells; assay: Cytostatic assay, Caki-1; assay type: cell-based; details: Homo sapiens, Table 3
Procedure: as §2

[10] = test system: Caki-2 kidney carcinoma cells; assay: Cytostatic assay, Caki-2; assay type: cell-based; details: Homo sapiens, Table 3
Procedure: as §2

[11] = test system: 293T embryonic kidney cells; assay: Cytostatic assay, 293T; assay type: cell-based; details: Homo sapiens, HEK-293T; Table 3
Procedure: as §2

[12] = test system: HT29 colorectal carcinoma cells; assay: Cytostatic assay, HT29; assay type: cell-based; details: Homo sapiens, HT-29; Table 3
Procedure: as §2

U87 glioma cells = assay: Cytostatic assay, U87; assay type: cell-based; details: Homo sapiens, U-87 MG; Table 3
Procedure: as §2

[13] = test system: HEL embryonic lung fibroblast cells; assay: Cytostatic assay, HEL; assay type: cell-based; details: Homo sapiens, Table 3
Procedure: as §2

[14] = test system: BAEC aortic endothelial cells; assay: Cytostatic assay, BAEC; assay type: cell-based, bovine; details: Bos taurus, Table 3
Procedure: as §2

[15] = test system: PC3 (rega) prostate cancer cells; assay: Cytostatic assay, PC3 (rega); assay type: cell-based; details: Table 4
Procedure: as §2

BPH-1 (UZ) = assay: Cytostatic assay, BPH-1 (UZ); assay type: cell-based; details: Homo sapiens, Table 4
Procedure: as §2

[16] = test system: DU145 (UZ) prostate cancer cells; assay: Cytostatic assay, DU145 (UZ); assay type: cell-based; details: Homo sapiens, DU-145; Table 4
Procedure: as §2

[17] = test system: PC-3 (UZ) prostate cancer cells; assay: Cytostatic assay, PC-3 (UZ); assay type: cell-based; details: Table 4
Procedure: as §2

[18] = test system: LNCaP (UZ) prostate cancer cells; assay: Cytostatic assay, LNCaP (UZ); assay type: cell-based; details: Homo sapiens, Table 4
Procedure: as §2

[19] = test system: PNT1A (UZ) prostate cells; assay: Cytostatic assay, PNT1A (UZ); assay type: cell-based; details: Homo sapiens, Table 4
Procedure: as §2

[20] = test system: 22Rv1 (UZ) prostate cancer cells; assay: Cytostatic assay, 22Rv1 (UZ); assay type: cell-based; details: Homo sapiens, Table 4
Procedure: as §2

PLC/PRF/5 hepatoma cells = assay: Cytostatic assay, PLC/PRF/5; assay type: cell-based; details: Homo sapiens, Table 4
Procedure: as §2

HepG2C3A hepatoma cells = assay: Cytostatic assay, HepG2C3A; assay type: cell-based; details: Homo sapiens, HepG2/C3A; Table 4
Procedure: as §2

Huh-7 hepatoma cells = assay: Cytostatic assay, Huh-7; assay type: cell-based; details: Homo sapiens, Table 4
Procedure: as §2

[21] = test system: DNA synthesis in CEM cells; assay: Antimetabolic activity assay, [CH3-3H]dThd incorporation (DNA synthesis), CEM; assay type: cell-based; details: Homo sapiens, CCRF-CEM, incorporation into TCA-insoluble material
Procedure: (§3) Radiolabeled precursors of DNA synthesis ([^3H-methyl]dThd), RNA synthesis ([5-^3H]Urd), and protein synthesis ([4,5-^3H]leu) were added to 10^5 CEM cell cultures in the 200 μl-wells of a microtiter plate at 1 μCi for each precursor in the presence of varying concentrations of the test compounds (5-fold dilution series). The cells were allowed to proliferate for 20 hrs at 37° C. in a humidified, CO2-controlled atmosphere. At the end of the incubation period, the contents of the wells were brought onto 25-mm glass fiber filters and further processed for measurement of acid-insoluble radioactivity.

[22] = test system: DNA synthesis in Raji cells; assay: Antimetabolic activity assay, [CH3-3H]dThd incorporation (DNA synthesis), Raji; assay type: cell-based; details: Homo sapiens, incorporation into TCA-insoluble material
Procedure: [The procedure below names another cell line; the source lists this cell line under the same test.] as §3

[23] = test system: RNA synthesis in CEM cells; assay: Antimetabolic activity assay, [5-3H]uridine incorporation (RNA synthesis), CEM; assay type: cell-based; details: Homo sapiens, CCRF-CEM, incorporation into TCA-insoluble material
Procedure: as §3

[24] = test system: RNA synthesis in Raji cells; assay: Antimetabolic activity assay, [5-3H]uridine incorporation (RNA synthesis), Raji; assay type: cell-based; details: Homo sapiens, incorporation into TCA-insoluble material
Procedure: [The procedure below names another cell line; the source lists this cell line under the same test.] as §3

[25] = test system: protein synthesis in CEM cells; assay: Antimetabolic activity assay, [4,5-3H]leucine incorporation (protein synthesis), CEM; assay type: cell-based; details: Homo sapiens, CCRF-CEM, incorporation into TCA-insoluble material
Procedure: as §3

[26] = test system: protein synthesis in Raji cells; assay: Antimetabolic activity assay, [4,5-3H]leucine incorporation (protein synthesis), Raji; assay type: cell-based; details: Homo sapiens, incorporation into TCA-insoluble material
Procedure: [The procedure below names another cell line; the source lists this cell line under the same test.] as §3

[27] = Table 2, read-out: Cytostatic activity (μM) CEM

| SMILES | IC50 (CEM cells; [27]) [µM] | IC50 (Molt4/C8 cells) [µM] | IC50 (Sup T1 cells) [µM] | IC50 (MT-2 cells) [µM] | IC50 (C8166 cells) [µM] | IC50 (HUT-78 cells) [µM] | IC50 (MT-4 cells) [µM] | IC50 [1] [µM] | IC50 [2] [µM] | IC50 [3] [µM] | IC50 [4] [µM] | IC50 [5] [µM] | IC50 [6] [µM] | IC50 [7] [µM] | IC50 [8] [µM] | IC50 [9] [µM] | IC50 [10] [µM] | IC50 [11] [µM] | IC50 [12] [µM] | IC50 (U87 glioma cells) [µM] | also measured |
| --- | --- | --- | --- | --- | --- | --- | --- | --- | --- | --- | --- | --- | --- | --- | --- | --- | --- | --- | --- | --- | --- |
| CCOC(=O)c1cc(-c2ccc(OC)cc2)sc1N [TR525, 2-Amino-5-(4-methoxy-phenyl)-thiophene-3-carboxylic acid ethyl ester] | 40 ± 1 | 18 ± 2.1 | 86 ± 7.1 | 52 ± 5.7 | 102 ± 16 | 117 ± 21 | > 100 | 62 ± 9.9 | 115 ± 19 | 102 ± 2.8 | > 100 | 79 ± 2.8 | 81 ± 4.9 | 49 ± 6 | 39 ± 4 | 83 ± 36 | 159 ± 19 | > 100 | 93 ± 11 | 90 ± 14 | IC50 (CEM cells; Table 1a, read-out: IC50 μM (CEM)): 40 µM; IC50 (L1210 cells): 44 ± 3 µM; IC50 [13]: 43 ± 9.9 µM; IC50 [14]: 74 ± 26 µM; IC50 [15]: 13 ± 9.6 µM; IC50 (BPH-1 (UZ)): 36 ± 1.4 µM; IC50 [16]: 41 ± 24 µM; IC50 [17]: 20 ± 3.5 µM; IC50 [18]: 2.3 ± 0.071 µM; IC50 [19]: 42 ± 5.7 µM; IC50 [20]: 16 ± 5.5 µM; IC50 (PLC/PRF/5 hepatoma cells): > 100 µM; IC50 (HepG2C3A hepatoma cells): > 100 µM; IC50 (Huh-7 hepatoma cells): > 100 µM; IC50 [21]: 15 ± 3 µM; IC50 [22]: ≥ 100 µM; IC50 [23]: 12 ± 5 µM; IC50 [24]: 82 ± 26 µM; IC50 [25]: 6.2 ± 7.6 µM; IC50 [26]: ≥ 100 µM |
| CCOC(=O)c1cc(CCc2ccccc2OC)sc1N [TR542, 2-Amino-5-[2-(2-methoxy-phenyl)-ethyl]-thiophene-3-carboxylic acid ethyl ester] | 20 ± 4 | 6.8 | 23 ± 2.1 | 79 ± 17 | 143 ± 32 | 107 ± 70 | 41 ± 5.7 | 11 ± 2.2 | 80 ± 5.7 | 31 ± 13 | 55 ± 12 | 41 ± 0.71 | 60 ± 0.7 | 53 ± 7 | 45 ± 6 | 62 ± 12 | 16 ± 10 | > 100 | > 100 | > 100 | IC50 (L1210 cells): 40 µM; IC50 [13]: 43 ± 4.9 µM; IC50 [14]: > 100 µM; IC50 [15]: 8.6 ± 3.4 µM; IC50 (BPH-1 (UZ)): 74 ± 4.2 µM; IC50 [16]: 34 ± 7.1 µM; IC50 [17]: 8.5 ± 3.5 µM; IC50 [18]: 3.8 ± 2.9 µM; IC50 [19]: 45 µM; IC50 [20]: 33 ± 0.71 µM; IC50 (PLC/PRF/5 hepatoma cells): 39 ± 5.7 µM; IC50 (HepG2C3A hepatoma cells): 30 ± 0.71 µM; IC50 (Huh-7 hepatoma cells): 28 ± 17 µM; IC50 [21]: 68 ± 14 µM; IC50 [22]: ≥ 100 µM; IC50 [23]: 39 ± 32 µM; IC50 [24]: ≥ 100 µM; IC50 [25]: 23 ± 14 µM; IC50 [26]: 94 ± 7 µM |
| CCOC(=O)c1c(N)sc(CCc2cc(OC)ccc2OC)c1C(=O)OCC [TR592, 2-Amino-5-[2-(2,5-dimethoxy-phenyl)-ethyl]-thiophene-3,4-dicarboxylic acid diethyl ester] | 20 ± 6 | 24 ± 17 | 4.1 ± 0.4 | 8.1 ± 1.2 | 25 ± 3.5 | 26 ± 3.5 | 36 ± 16 | 17 ± 0.7 | 20 ± 15 | 20 ± 1.4 | 41 ± 7.1 | 17 ± 5.7 | 27 ± 19 | 33 ± 9 | 11 ± 3 | 24 ± 0.7 | 42 ± 2.1 | 30 ± 7.1 | 43 ± 4.2 | 39 ± 2.8 | IC50 [13]: 35 ± 6.4 µM; IC50 [14]: 31 ± 4.2 µM; IC50 [15]: 12 ± 2.1 µM; IC50 (BPH-1 (UZ)): 28 ± 3.5 µM; IC50 [16]: 18 ± 2.1 µM; IC50 [17]: 8.5 ± 0.85 µM; IC50 [18]: 4.1 ± 3.6 µM; IC50 [19]: 31 ± 0.71 µM; IC50 [20]: 14 ± 8.3 µM; IC50 (PLC/PRF/5 hepatoma cells): 25 µM; IC50 (HepG2C3A hepatoma cells): 34 ± 12 µM; IC50 (Huh-7 hepatoma cells): 34 ± 14 µM; IC50 [21]: 17 ± 8 µM; IC50 [22]: 25 ± 16 µM; IC50 [23]: 31 ± 22 µM; IC50 [24]: 31 ± 19 µM; IC50 [25]: 17 µM; IC50 [26]: 23 ± 7 µM |
